PubChem BioAssay (NCI)
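96-well plates; 48 h exposure; 5 concentrations. Endpoints by linear interpolation between flanking doses. Not reached: highest tested concentration assigned. GI50 is the concentration that inhibits growth by half. At the TGI there is no net growth.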

Key:
Assay in all cases: inhibition of tumour cell growth, NCI panel, 48 h
[1] = system: A498 renal
[2] = system: A549 NSCLC
[3] = system: ACHN renal
[4] = system: CAKI-1 renal
[5] = system: CCRF-CEM leukemia
[6] = system: COLO 205 colon
[7] = system: DU-145 prostate
[8] = system: EKVX NSCLC
[9] = system: HCC-2998 colon
[10] = system: HCT-116 colon
[11] = system: HCT-15 colon
[12] = system: HL-60(TB) leukemia
[13] = system: HOP-62 NSCLC
[14] = system: HOP-92 NSCLC
[15] = system: HS 578T breast
[16] = system: HT29 colon
[17] = system: IGROV1 ovarian
[18] = system: K-562 leukemia
[19] = system: KM12 colon
[20] = system: LOX IMVI melanoma
[21] = system: M14 melanoma
[22] = system: MALME-3M melanoma
[23] = system: MCF7 breast
[24] = system: MDA-MB-231 breast
[25] = system: MDA-MB-435
[26] = system: MOLT-4 leukemia
[27] = system: NCI-H226 lung
[28] = system: NCI-H23 lung

Compound `Nc1ncnc2c1ccn2-c1cccc(NC(=O)c2ccc(N3CCOCC3)c(C(F)(F)F)c2)c1` has a GI50 [1] of 3.06 µM, a TGI [1] of 12.8 µM and a GI50 [2] of 3.41 µM. It also gave a TGI [2] of 15.2 µM, a GI50 [3] of 2.88 µM and a TGI [3] of 10.5 µM. The GI50 [4] was 2.69 µM, the TGI [4] was 8.73 µM and the GI50 [5] was 2.07 µM. For the same compound, the TGI [5] was 11.8 µM, the GI50 [6] was 3.79 µM and the TGI [6] was 15.1 µM. For the same compound, the GI50 [7] was 3.2 µM, the TGI [7] was 12.1 µM and the GI50 [8] was 3.2 µM. It also gave a TGI [8] of 22.1 µM, a GI50 [9] of 4.6 µM and a TGI [9] of 19.6 µM. It also gave a GI50 [10] of 2.71 µM, a TGI [10] of 10.3 µM and a GI50 [11] of 2.74 µM. It also gave a TGI [11] of 10.4 µM, a GI50 [12] of 3.17 µM and a TGI [12] of 8.07 µM. It also gave a GI50 [13] of 3.62 µM, a TGI [13] of 15.5 µM and a GI50 [14] of 1.6 µM. It also gave a TGI [14] of 5.82 µM, a GI50 [15] of 1.83 µM and a TGI [15] of 6.03 µM. The GI50 [16] was 3 µM, the TGI [16] was 12.3 µM and the GI50 [17] was 3.83 µM. It also gave a TGI [17] of 33.2 µM, a GI50 [18] of 2.41 µM and a TGI [18] of 16 µM. It also gave a GI50 [19] of 2.69 µM, a TGI [19] of 10.4 µM and a GI50 [20] of 3.1 µM. For the same compound, the TGI [20] was 12.7 µM, the GI50 [21] was 3.33 µM and the TGI [21] was 10.6 µM. The GI50 [22] was 3.08 µM, the TGI [22] was 13.2 µM and the GI50 [23] was 3.44 µM. It also gave a TGI [23] of 14.2 µM, a GI50 [24] of 2.47 µM and a TGI [24] of 10.9 µM. The GI50 [25] was 2.64 µM, the TGI [25] was 13.2 µM and the GI50 [26] was 3.05 µM. It also gave a TGI [26] of 20.1 µM, a GI50 [27] of 3.51 µM and a TGI [27] of 14.3 µM. It also gave a GI50 [28] of 2.95 µM.
